According to PubChem BioAssay (NCI):
Several values for one entry are separate records, joined by “and”; a condition that tells them apart may be missing. Equal values may be shown once.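 1) Cells in 96-well plates. 2) Compound, 48 h, 5 concentrations. 3) Linear interpolation between surrounding doses. 4) Unreached endpoint = highest concentration. The concentration for 50% growth inhibition is given as GI50. TGI marks complete inhibition of growth.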

Columns and labels:
Assay in all cases: growth of human tumour cells (NCI), 48 h
CAKI-1 renal = test system: CAKI-1 renal
DU-145 prostate = test system: DU-145 prostate
OVCAR-4 ovarian = test system: OVCAR-4 ovarian
SF-268 CNS = test system: SF-268 CNS
UACC-257 melanoma = test system: UACC-257 melanoma
HL-60(TB) leukemia = test system: HL-60(TB) leukemia
DMS 273 small cell lung = test system: DMS 273 small cell lung
KM20L2 colon = test system: KM20L2 colon

## CCC1=CC(OCc2ccccc2)C(CCN(Cc2ccccc2)C(=O)OCc2ccccc2)C1 (stereo not given)
CAKI-1 renal
  TGI: 28.3 µM
DU-145 prostate
  TGI: 30.2 µM
OVCAR-4 ovarian
  TGI: 27.4 µM
SF-268 CNS
  TGI: 32.5 µM
UACC-257 melanoma
  TGI: 30.3 µM

## Cc1cc(NS(=O)(=O)c2ccc(NO)cc2)no1
CAKI-1 renal
  TGI: > 100 µM
DU-145 prostate
  TGI: > 100 µM
HL-60(TB) leukemia
  TGI: > 100 µM
OVCAR-4 ovarian
  TGI: > 100 µM
SF-268 CNS
  TGI: > 100 µM
UACC-257 melanoma
  TGI: > 100 µM

## Nc1c(F)c(F)c2c(c1F)N(CCCCCl)c1ccccc1S2
CAKI-1 renal
  TGI: > 100 µM
DU-145 prostate
  TGI: > 100 µM
HL-60(TB) leukemia
  TGI: > 100 µM
OVCAR-4 ovarian
  TGI: > 100 µM
SF-268 CNS
  TGI: > 100 µM
UACC-257 melanoma
  TGI: > 100 µM

## O=c1ccn(C/C=C/c2ccccc2)c(=S)n1C/C=C/c1ccccc1
CAKI-1 renal
  TGI: > 100 µM
DU-145 prostate
  TGI: > 100 µM
HL-60(TB) leukemia
  TGI: 39.4 µM
OVCAR-4 ovarian
  TGI: > 100 µM
SF-268 CNS
  TGI: > 100 µM
UACC-257 melanoma
  TGI: > 100 µM

## CC1(C)CC(=O)c2c(-c3ccc(Cl)cc3)c(C#N)c(=S)n(C3OC(CO)C(O)C(O)C3O)c2C1 (stereo not given)
CAKI-1 renal
  TGI: > 100 µM
DU-145 prostate
  TGI: > 100 µM
HL-60(TB) leukemia
  TGI: > 100 µM
OVCAR-4 ovarian
  TGI: > 100 µM
SF-268 CNS
  TGI: > 100 µM
UACC-257 melanoma
  TGI: 98.2 µM

## O=C1CSC(c2ccccc2)N1c1ccc(-c2ccc(-n3c(-c4ccccc4)nc4ccccc4c3=O)cc2)cc1 (stereo not given)
CAKI-1 renal
  TGI: > 100 µM
DU-145 prostate
  TGI: > 100 µM
HL-60(TB) leukemia
  TGI: > 100 µM
OVCAR-4 ovarian
  TGI: > 100 µM
SF-268 CNS
  TGI: > 100 µM
UACC-257 melanoma
  TGI: > 100 µM

## CC(=O)N1C(c2[nH]c3ccccc3c2Cc2ccccc2)CCN1c1ccccc1 (stereo not given)
CAKI-1 renal
  TGI: > 10 µM
DU-145 prostate
  TGI: > 10 µM
HL-60(TB) leukemia
  TGI: > 10 µM
OVCAR-4 ovarian
  TGI: > 10 µM
SF-268 CNS
  TGI: > 10 µM
UACC-257 melanoma
  TGI: > 10 µM

## O=c1cccccc1[O-].O=c1cccccc1[O-].O=c1cccccc1[O-].[Nd+3]
CAKI-1 renal
  TGI: > 100 µM
DMS 273 small cell lung
  GI50: 14.3 µM
  TGI: > 100 µM
HL-60(TB) leukemia
  TGI: > 100 µM
KM20L2 colon
  GI50: 31.7 µM
  TGI: > 100 µM
OVCAR-4 ovarian
  TGI: > 100 µM
UACC-257 melanoma
  TGI: > 100 µM

## COc1ccc(/C=C2/SC(=Nc3ccccc3)N(NC(=O)Cc3ccccc3)C2=O)cc1
DU-145 prostate
  TGI: > 100 µM
HL-60(TB) leukemia
  TGI: > 100 µM
OVCAR-4 ovarian
  TGI: > 100 µM
SF-268 CNS
  TGI: > 100 µM
UACC-257 melanoma
  TGI: > 100 µM

## CC(CC(=O)N1C2CC3CCC2(CS1(=O)=O)C3(C)C)[Si](C)(C)C (stereo not given)
CAKI-1 renal
  TGI: > 100 µM
DU-145 prostate
  TGI: > 100 µM
HL-60(TB) leukemia
  TGI: > 100 µM
SF-268 CNS
  TGI: > 100 µM
UACC-257 melanoma
  TGI: > 100 µM

## CC(=O)Oc1ccc2c(c1)[nH]c1c3ccc(OC(C)=O)cc3oc(=O)c21
CAKI-1 renal
  TGI: > 100 µM
DU-145 prostate
  TGI: > 100 µM
OVCAR-4 ovarian
  TGI: > 100 µM
SF-268 CNS
  TGI: 75 µM
UACC-257 melanoma
  TGI: > 100 µM

## C1CSCCSCCSCCSCCS1
CAKI-1 renal
  TGI: > 100 µM
DU-145 prostate
  TGI: > 100 µM
HL-60(TB) leukemia
  TGI: > 100 µM
OVCAR-4 ovarian
  TGI: > 100 µM
SF-268 CNS
  TGI: > 100 µM
UACC-257 melanoma
  TGI: > 100 µM

## CN(C)c1n2c3ccc([N+](=O)[O-])cc3n3c(N(C)C)[n+]4ccccc4c3c2c2cccc[n+]12
CAKI-1 renal
  TGI: > 100 µM
DU-145 prostate
  TGI: > 100 µM
HL-60(TB) leukemia
  TGI: > 100 µM
OVCAR-4 ovarian
  TGI: > 100 µM
SF-268 CNS
  TGI: > 100 µM
UACC-257 melanoma
  TGI: > 100 µM

## CN1N=C(c2ccncc2)OC1c1cccc(F)c1 (stereo not given)
DU-145 prostate
  TGI: > 100 µM
HL-60(TB) leukemia
  TGI: > 100 µM
OVCAR-4 ovarian
  TGI: > 100 µM
SF-268 CNS
  TGI: > 100 µM
UACC-257 melanoma
  TGI: > 100 µM

## COc1ccc(COCC[C@H](C)OC2OC(CO[Si](C)(C)C(C)(C)C)C(O)C(O)C2O)cc1 (stereo not given in full)
CAKI-1 renal
  TGI: > 100 µM
DU-145 prostate
  TGI: > 100 µM
HL-60(TB) leukemia
  TGI: > 100 µM
OVCAR-4 ovarian
  TGI: > 100 µM
SF-268 CNS
  TGI: > 100 µM
UACC-257 melanoma
  TGI: > 100 µM

## COc1ccc2nc3c4c(nccc4c2c1)-c1ncccc1C3=O
CAKI-1 renal
  TGI: 1.83 µM
DU-145 prostate
  TGI: 0.023 µM
HL-60(TB) leukemia
  TGI: 0.165 µM
OVCAR-4 ovarian
  TGI: 2.01 µM
SF-268 CNS
  TGI: 3.96 µM
UACC-257 melanoma
  TGI: 0.196 µM

## O=C(Nc1ccccc1)OCCN=c1c2ccccc2ccc2ccccc12
CAKI-1 renal
  TGI: 90.6 µM
DU-145 prostate
  TGI: > 100 µM
HL-60(TB) leukemia
  TGI: 44.9 µM
OVCAR-4 ovarian
  TGI: > 100 µM
SF-268 CNS
  TGI: > 100 µM
UACC-257 melanoma
  TGI: 42.2 µM

## O=C1CC(n2ccnc2)c2c(Cl)sc(Cl)c21 (stereo not given)
CAKI-1 renal
  TGI: 36.1 µM
DU-145 prostate
  TGI: 30.6 µM
HL-60(TB) leukemia
  TGI: > 100 µM
OVCAR-4 ovarian
  TGI: 42.3 µM
SF-268 CNS
  TGI: 59.3 µM
UACC-257 melanoma
  TGI: > 51.1 µM

## N#Cc1c(C#N)c(SSc2c(C#N)c(C#N)c(N)n2-c2cccc3ccccc23)n(-c2cccc3ccccc23)c1N
CAKI-1 renal
  TGI: 29.5 µM
DU-145 prostate
  TGI: 47.6 µM
OVCAR-4 ovarian
  TGI: 41.9 µM
SF-268 CNS
  TGI: 33.2 µM
UACC-257 melanoma
  TGI: 37.6 µM

## CCOC(=O)c1ccc(N=C2Sc3nc4ccccc4n3C2=Nc2ccc(C(=O)OCC)cc2)cc1
CAKI-1 renal
  TGI: 70.6 µM
DU-145 prostate
  TGI: > 100 µM
HL-60(TB) leukemia
  TGI: > 100 µM
OVCAR-4 ovarian
  TGI: 81.5 µM
SF-268 CNS
  TGI: 84.3 µM
UACC-257 melanoma
  TGI: > 100 µM

## COc1ccc2nc3cccc([N+](=O)[O-])c3c(NCCC(=O)O)c2c1
CAKI-1 renal
  TGI: > 10 µM
DU-145 prostate
  TGI: > 10 µM
HL-60(TB) leukemia
  TGI: > 10 µM
OVCAR-4 ovarian
  TGI: > 10 µM
SF-268 CNS
  TGI: > 10 µM
UACC-257 melanoma
  TGI: > 10 µM

## Cc1cn(C2CC(O)C(Cn3nncc3Cn3cnc4c(N)ncnc43)O2)c(=O)[nH]c1=O (stereo not given)
CAKI-1 renal
  TGI: > 100 µM
DU-145 prostate
  TGI: > 100 µM
HL-60(TB) leukemia
  TGI: > 100 µM
OVCAR-4 ovarian
  TGI: > 100 µM
SF-268 CNS
  TGI: > 100 µM
UACC-257 melanoma
  TGI: > 100 µM

## COc1nc(=O)[nH]c2c1C(c1ccc([N+](=O)[O-])cc1)c1c(OC)nc(=O)[nH]c1O2
CAKI-1 renal
  TGI: > 100 µM
DU-145 prostate
  TGI: > 100 µM
HL-60(TB) leukemia
  TGI: > 100 µM
OVCAR-4 ovarian
  TGI: > 100 µM
SF-268 CNS
  TGI: > 100 µM
UACC-257 melanoma
  TGI: > 100 µM

## N#Cc1c(-c2ccccc2)cn(C(=O)c2ccccc2)c1N
DU-145 prostate
  TGI: > 100 µM
HL-60(TB) leukemia
  TGI: > 100 µM
OVCAR-4 ovarian
  TGI: > 100 µM
SF-268 CNS
  TGI: > 100 µM

## c1ccc2c(c1)CCN1CCc3ccccc3C1C2 (stereo not given)
CAKI-1 renal
  TGI: > 100 µM
DU-145 prostate
  TGI: > 100 µM
HL-60(TB) leukemia
  TGI: > 100 µM
OVCAR-4 ovarian
  TGI: > 100 µM
SF-268 CNS
  TGI: > 100 µM
UACC-257 melanoma
  TGI: > 100 µM

## CN1C(=O)C(=Cc2ccc(Br)cc2)C(=O)N(C)C1=O
CAKI-1 renal
  TGI: > 100 µM
DU-145 prostate
  TGI: > 100 µM
OVCAR-4 ovarian
  TGI: > 100 µM
SF-268 CNS
  TGI: > 100 µM
UACC-257 melanoma
  TGI: > 100 µM

## CSC12c3cc(C)n(-c4ccc(I)cc4)c3CC(C)(C)CN1C(=O)C2Oc1ccccc1 (stereo not given)
CAKI-1 renal
  TGI: > 100 µM
DU-145 prostate
  TGI: > 100 µM
HL-60(TB) leukemia
  TGI: > 100 µM
OVCAR-4 ovarian
  TGI: > 100 µM
SF-268 CNS
  TGI: > 100 µM
UACC-257 melanoma
  TGI: > 100 µM

## COC(=O)CN1Cc2cc(C)cc(c2O)CN(CC(=O)OC)Cc2cc(C)cc(c2O)CN(CC(=O)OC)Cc2cc(C)cc(c2O)CN(CC(=O)OC)Cc2cc(C)cc(c2O)C1
CAKI-1 renal
  TGI: 50 µM
DU-145 prostate
  GI50: 33.3 µM
  TGI: 50 µM and > 100 µM
HL-60(TB) leukemia
  TGI: 16 µM
OVCAR-4 ovarian
  GI50: 33.1 µM
  TGI: 50 µM and > 100 µM
SF-268 CNS
  GI50: > 100 µM
  TGI: 50 µM and > 100 µM
UACC-257 melanoma
  GI50: 50.4 µM
  TGI: 50 µM and > 100 µM

## CCOC(=O)/C=C(/C(=O)OCC)n1ccc(=O)n(Cc2cn(CCCCOC(C)=O)nn2)c1=O
CAKI-1 renal
  TGI: 53.6 µM
DU-145 prostate
  TGI: > 100 µM
OVCAR-4 ovarian
  TGI: > 100 µM
SF-268 CNS
  TGI: > 100 µM
UACC-257 melanoma
  TGI: > 100 µM
